# From patent US9328099B2, “Cyanomethylpyrazole carboxamides as janus kinase inhibitors” (Merck Sharp & Dohme Corp., priority 2011, dated 2016)
# Tests used:
# [1] = biological target: JAK2 (Homo sapiens (Human), UniProt O60674); assay: Jak Biochemical HTRF Assay, JAK2; settings: HTRF biochemical assay, GST-tagged catalytic domain; top concentration tested […]
# Source text: (§1) Jak Biochemical HTRF Assay Protocol
# (§2) Subsequent reagent additions employed an Agilent Bravo.
# [2] = biological target: JAK1 (Homo sapiens (Human), UniProt P23458); assay: Jak Biochemical HTRF Assay, JAK1; settings: HTRF biochemical assay, GST-tagged catalytic domain; top concentration tested […]; read-out: JAK1 IC50
# Sequence of JAK1 (P23458 875-1153): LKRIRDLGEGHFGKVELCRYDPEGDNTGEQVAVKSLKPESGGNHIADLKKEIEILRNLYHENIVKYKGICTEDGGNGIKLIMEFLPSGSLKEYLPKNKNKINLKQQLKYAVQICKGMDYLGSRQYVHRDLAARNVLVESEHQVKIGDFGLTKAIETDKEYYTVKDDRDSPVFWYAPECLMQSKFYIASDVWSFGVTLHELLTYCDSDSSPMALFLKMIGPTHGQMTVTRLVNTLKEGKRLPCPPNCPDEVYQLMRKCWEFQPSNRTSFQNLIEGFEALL
# Source text: as §1, §2
# Sequence of JAK2 (O60674 849-1124): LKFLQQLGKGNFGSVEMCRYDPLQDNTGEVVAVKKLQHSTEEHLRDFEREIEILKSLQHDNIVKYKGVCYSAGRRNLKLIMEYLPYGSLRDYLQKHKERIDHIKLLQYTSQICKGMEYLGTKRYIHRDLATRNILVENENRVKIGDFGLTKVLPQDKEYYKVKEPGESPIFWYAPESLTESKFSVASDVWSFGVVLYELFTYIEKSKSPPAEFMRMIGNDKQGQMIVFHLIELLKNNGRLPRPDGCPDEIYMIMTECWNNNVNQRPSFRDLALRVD
IC50 [1] [nM],IC50 [2] [nM],Compound
115,8,"CC1(C(=O)N2CCC(CC#N)(n3cc(C(N)=O)c(Nc4ccnc(F)c4)n3)CC2)CCC1 [Example 34-60, 1-{4-(cyanomethyl)-1-[(1-methylcyclobutyl)carbonyl]piperidin-4-yl}-3-[(2-fluoropyridin-4-yl)amino]-1H-pyrazole-4-carboxamide]"
38,2,"CC(O)(C(=O)N1CCC(CC#N)(n2cc(C(N)=O)c(Nc3ccnc(F)c3)n2)CC1)C(F)F (centres unmarked) [Example 34-61, 1-[4-(cyanomethyl)-1-(3,3-difluoro-2-hydroxy-2-methylpropanoyl)piperidin-4-yl]-3-[(2-fluoropyridin-4-yl)amino]-1H-pyrazole-4-carboxamide]"
47,1,"C[C@@H](O)CC(=O)N1CCC(CC#N)(n2cc(C(N)=O)c(Nc3ccnc(F)c3)n2)CC1 [Example 34-62, 1-{4-(cyanomethyl)-1-[(3R)-3-hydroxybutanoyl]piperidin-4-yl}-3-[(2-fluoropyridin-4-yl)amino]-1H-pyrazole-4-carboxamide]"
10,0.2,"N#CCC1(n2cc(C(N)=O)c(Nc3ccnc(F)c3)n2)CCN(C(=O)CC(F)(F)F)CC1 [Example 35-2, 1-(4-(cyanomethyl)-1-(3,3,3-trifluoropropanoyl)piperidin-4-yl)-3-(2-fluoropyridin-4-ylamino)-1H-pyrazole-4-carboxamide]"
35,3,"N#CCC1(n2cc(C(N)=O)c(Nc3cncc(F)c3)n2)CCN(C(=O)CC(F)(F)F)CC1 [Example 35-3, 1-(4-(cyanomethyl)-1-(3,3,3-trifluoropropanoyl)piperidin-4-yl)-3-(5-fluoropyridin-3-ylamino)-1H-pyrazole-4-carboxamide]"
77,5,"N#CCC(=O)N1CCC(CC#N)(n2cc(C(N)=O)c(Nc3ccccc3)n2)CC1 [Example 36-1, 1-[1-(Cyanoacetyl)-4-(cyanomethyl)piperidin-4-yl]-3-(phenylamino)-1H-pyrazole-4-carboxamide]"
10,0.6,"CS(=O)(=O)c1ccc(Nc2nn(C3(CC#N)CCN(C(=O)CC#N)CC3)cc2C(N)=O)cc1 [Example 36-2, 1-[1-(cyanoacetyl)-4-(cyanomethyl)piperidin-4-yl]-3-{[4-(methylsulfonyl)phenyl]amino}-1H-pyrazole-4-carboxamide]"
13,2,"CC(C)S(=O)(=O)N1CCC(CC#N)(n2cc(C(N)=O)c(Nc3ccccc3)n2)CC1 [Example 37-1, 1-[4-(Cyanomethyl)-1-(isopropylsulfonyl)piperidin-4-yl]-3-(phenylamino)-1H-pyrazole-4-carboxamide]"
3,0.4,"CS(=O)(=O)N1CCC(CC#N)(n2cc(C(N)=O)c(Nc3ccccc3)n2)CC1 [Example 37-2, 1-[4-(cyanomethyl)-1-(methylsulfonyl)piperidin-4-yl]-3-(phenylamino)-1H-pyrazole-4-carboxamide]"
12,1,"CCS(=O)(=O)N1CCC(CC#N)(n2cc(C(N)=O)c(Nc3ccccc3)n2)CC1 [Example 37-3, 1-[4-(cyanomethyl)-1-(ethylsulfonyl)piperidin-4-yl]-3-(phenylamino)-1H-pyrazole-4-carboxamide]"
2,0.6,"N#CCC1(n2cc(C(N)=O)c(Nc3ccccc3)n2)CCN(S(=O)(=O)c2ccco2)CC1 [Example 37-4, 1-[4-(cyanomethyl)-1-(furan-2-ylsulfonyl)piperidin-4-yl]-3-(phenylamino)-1H-pyrazole-4-carboxamide]"
6,0.7,"N#CCC1(n2cc(C(N)=O)c(Nc3ccccc3)n2)CCN(S(=O)(=O)C(F)(F)F)CC1 [Example 37-5, 1-{4-(cyanomethyl)-1-[(trifluoromethyl)sulfonyl]piperidin-4-yl}-3-(phenylamino)-1H-pyrazole-4-carboxamide]"
1,0.3,"N#CCC1(n2cc(C(N)=O)c(Nc3ccccc3)n2)CCN(S(=O)(=O)c2ccccc2)CC1 [Example 37-6, 1-[4-(cyanomethyl)-1-(phenylsulfonyl)piperidin-4-yl]-3-(phenylamino)-1H-pyrazole-4-carboxamide]"
9,2,"Cn1cnc(S(=O)(=O)N2CCC(CC#N)(n3cc(C(N)=O)c(Nc4ccccc4)n3)CC2)c1 [Example 37-7, 1-{4-(cyanomethyl)-1-[(1-methyl-1H-imidazol-4-yl)sulfonyl]piperidin-4-yl}-3-(phenylamino)-1H-pyrazole-4-carboxamide]"
35,15,"N#CCC1(n2cc(C(N)=O)c(Nc3ccccc3)n2)CCN(S(=O)(=O)Cc2ccccc2)CC1 [Example 37-8, 1-[1-(benzylsulfonyl)-4-(cyanomethyl)piperidin-4-yl]-3-(phenylamino)-1H-pyrazole-4-carboxamide]"
3,0.8,"COc1ccc(S(=O)(=O)N2CCC(CC#N)(n3cc(C(N)=O)c(Nc4ccccc4)n3)CC2)cc1 [Example 37-9, 1-{4-(cyanomethyl)-1-[(4-methoxyphenyl)sulfonyl]piperidin-4-yl}-3-(phenylamino)-1H-pyrazole-4-carboxamide]"

IC50 [1] [nM],IC50 [2] [nM],Compound
3,0.7,"COc1cccc(S(=O)(=O)N2CCC(CC#N)(n3cc(C(N)=O)c(Nc4ccccc4)n3)CC2)c1 [Example 37-10, 1-{4-(cyanomethyl)-1-[(3-methoxyphenyl)sulfonyl]piperidin-4-yl}-3-(phenylamino)-1H-pyrazole-4-carboxamide]"
2,0.6,"N#CCC1(n2cc(C(N)=O)c(Nc3ccccc3)n2)CCN(S(=O)(=O)c2cccc(Cl)c2)CC1 [Example 37-11, 1-{1-[(3-chlorophenyl)sulfonyl]-4-(cyanomethyl)piperidin-4-yl}-3-(phenylamino)-1H-pyrazole-4-carboxamide]"
9,3,"N#CCC1(n2cc(C(N)=O)c(Nc3ccccc3)n2)CCN(S(=O)(=O)c2ccccc2Cl)CC1 [Example 37-12, 1-{1-[(2-chlorophenyl)sulfonyl]-4-(cyanomethyl)piperidin-4-yl}-3-(phenylamino)-1H-pyrazole-4-carboxamide]"
24,5,"N#CCC1(n2cc(C(N)=O)c(Nc3ccccc3)n2)CCN(S(=O)(=O)c2ccc(-c3ccccc3)cc2)CC1 [Example 37-14, 1-[1-(biphenyl-4-ylsulfonyl)-4-(cyanomethyl)piperidin-4-yl]-3-(phenylamino)-1H-pyrazole-4-carboxamide]"
3,0.4,"N#CCC1(n2cc(C(N)=O)c(Nc3ccccc3)n2)CCN(S(=O)(=O)C2CC2)CC1 [Example 37-15, 1-[4-(cyanomethyl)-1-(cyclopropylsulfonyl)piperidin-4-yl]-3-(phenylamino)-1H-pyrazole-4-carboxamide]"
366,79,"CS(=O)(=O)N1CC(CC#N)(n2cc(C(N)=O)c(Nc3ccccc3)n2)C1 [Example 37-16, 1-[3-(cyanomethyl)-1-(methylsulfonyl)azetidin-3-yl]-3-(phenylamino)-1H-pyrazole-4-carboxamide]"
247,95,"N#CCC1(n2cc(C(N)=O)c(Nc3ccccc3)n2)CN(S(=O)(=O)c2ccco2)C1 [Example 37-17, 1-[3-(cyanomethyl)-1-(furan-2-ylsulfonyl)azetidin-3-yl]-3-(phenylamino)-1H-pyrazole-4-carboxamide]"
585,159,"N#CCC1(n2cc(C(N)=O)c(Nc3ccccc3)n2)CN(S(=O)(=O)C(F)(F)F)C1 [Example 37-18, 1-{3-(cyanomethyl)-1-[(trifluoromethyl)sulfonyl]azetidin-3-yl}-3-(phenylamino)-1H-pyrazole-4-carboxamide]"
463,138,"N#CCC1(n2cc(C(N)=O)c(Nc3ccccc3)n2)CN(S(=O)(=O)c2ccccc2)C1 [Example 37-19, 1-[3-(cyanomethyl)-1-(phenylsulfonyl)azetidin-3-yl]-3-(phenylamino)-1H-pyrazole-4-carboxamide]"
521,105,"N#CCC1(n2cc(C(N)=O)c(Nc3ccccc3)n2)CN(S(=O)(=O)Cc2ccccc2)C1 [Example 37-20, 1-[1-(benzylsulfonyl)-3-(cyanomethyl)azetidin-3-yl]-3-(phenylamino)-1H-pyrazole-4-carboxamide]"
68,3,"N#CCC1(n2cc(C(N)=O)c(Nc3ccccc3)n2)CN(C(=O)Nc2cccc(F)c2)C1 [Example 38-1, 1-{3-(Cyanomethyl)-1-[(3-fluorophenyl)carbamoyl]azetidin-3-yl}-3-(phenylamino)-1H pyrazole-4-carboxamide]"
628,20,"N#CCC1(n2cc(C(N)=O)c(Nc3ccccc3)n2)CN(C(=O)NC2CCCCC2)C1 [Example 38-2, 1-[3-(cyanomethyl)-1-(cyclohexylcarbamoyl)azetidin-3-yl]-3-(phenylamino)-1H-pyrazole-4-carboxamide]"
185,10,"CC(C)NC(=O)N1CC(CC#N)(n2cc(C(N)=O)c(Nc3ccccc3)n2)C1 [Example 38-3, 1-{3-(cyanomethyl)-1-[(1-methylethyl)carbamoyl]azetidin-3-yl}-3-(phenylamino)-1H-pyrazole-4-carboxamide]"
191,12,"Cc1ccc(NC(=O)N2CC(CC#N)(n3cc(C(N)=O)c(Nc4ccccc4)n3)C2)cc1C [Example 38-4, 1-{3-(cyanomethyl)-1-[(3,4-dimethylphenyl)carbamoyl]azetidin-3-yl}-3-(phenylamino)-1H-pyrazole-4-carboxamide]"
214,4,"CCCCNC(=O)N1CC(CC#N)(n2cc(C(N)=O)c(Nc3ccccc3)n2)C1 [Example 38-5, 1-[1-(butylcarbamoyl)-3-(cyanomethyl)azetidin-3-yl]-3-(phenylamino)-1H-pyrazole-4-carboxamide]"
